Measurements as given in patent US20250325468A1, “PEPTIDE INHIBITING FORMATION OF SNARE COMPLEX AND USE THEREOF” (MEDYTOX INC., priority 2020, published 2025).
“And” between values parts separate entries of the source, which are not always exact repeats. Equal values may be shown once. Where no end group is shown, it is not given here.

Assays:
B16-F10 cells = experiment: Raw material toxicity test: MTT analysis; assay type: cell-based, mice; settings: FIG. 3; 12.5 μM, 25 μM and 50 μM, 48 hours
Method: B16-F10 cells purchased from the Korean Cell Line Bank were inoculated into 100 μL of a DMEM medium containing 10% FBS at a concentration of 1×10^4 cells/well in a 96-well plate and cultured for 48 hours. B16-F10 cells are a murine melanoma cell line derived from mice. These cells are adherent and have an epithelial morphology. Thereafter, the C2-P4 peptide was diluted in a DMEM culture medium at concentrations of 12.5 μM, 25 μM, and 50 μM to replace the medium, and the cells were cultured for 48 hours. After centrifuging the plate at 1,000 rpm for 10 minutes, the culture medium solution was removed. Each well was washed twice with PBS, and a 0.5 mg/ml MTT solution diluted in a DMEM medium was added thereto. The cells were cultured in an incubator of 37° C. and 5% CO2 for 2 hours. After centrifuging the plate at 1,000 rpm for 10 minutes, the MTT solution was removed. Each well was washed twice with PBS, and 150 μL of DMSO was added to dissolve the produced formazan. The plate was placed in a spectrometer (Spectra MAX i3), and absorbance of the sample in each well was measured at 590 nm.

[1] = Skin irritation test on artificial skin (MTT); assay type: cell-based; settings: human, artificial skin (Neoderm-ED, Tegoscience); FIG. 4; 20 μl of 100 μg/ml peptide; 50% or greater = no irritation; read-out: cell viability
Method: (§1) 1×PBS and 5% SDS were evenly applied to artificial skin (Neoderm-ED) purchased from Tegoscience (South Korea) to prepare a negative control and a positive control, respectively. An experimental group was evenly coated with 20 μl of 100 μg/ml C2-P4 peptide. After allowing the samples to react at room temperature for 15 minutes, the resultants were each transferred to the wells of a 12-well culture plate and cultured in an incubator of 37° C. and 5% CO2 for 15 minutes. Once the reaction was completed, the artificial skin was washed twice with PBS and transferred to the wells of a new 12-well culture plate and cultured for 42 hours. Once the culture was completed, 2 ml of 0.3 mg/ml MTT solution was added, and the cells were cultured for 3 hours. The sample in each well of the plate was decolorized by adding 0.04 N HCl-isopropanol, and placed in the Spectra MAX i3, and absorbance of the sample in each well was measured at 580 nm.
(§2) FIG. 4 is a graph showing the results of measuring effect of C2-P4 on skin irritation. […] Here, when the cell viability of a sample was 50% or greater, the sample was determined to have no irritation.

[2] = tested on: artificial skin (Neoderm-ED); experiment: Skin irritation test on artificial skin (MTT); assay type: cell-based; settings: FIG. 4; 20 μl of 100 μg/ml peptide; 50% or greater viability = no irritation
Method: as §1, §2

MITF gene = MITF gene activity by real-time PCR; assay type: cell-based, mice; settings: Table 2; three replicates; C2-P4 10 μM, α-MSH 50 nM, 48 hours
Method: B16-F10 cells purchased from the Korean Cell Line Bank were inoculated into 3 mL of a DMEM medium containing 10% FBS at a concentration of 1×10^5 cells/well in a 6-well plate and cultured in an incubator of 37° C. and 5% CO2 for 24 hours to form a cell monolayer. The medium in a negative control was replaced with a DMEM medium, and the medium in peptide-treated experimental groups and α-MSH experimental groups was replaced with a medium containing 10 μM of each of the peptides and 50 nM of α-MSH, respectively, and then the cells were cultured for 48 hours. Each of the experimental groups was washed twice with PBS, the cells were obtained with trypsin-EDTA and centrifuged at 1500 rpm for 5 minutes to separate the cells. RNA was extracted from the separated cells using Trizol, and each 1,000 ng of cDNA was synthesized using reverse transcriptase. Using 100 ng of each of the synthesized cDNAs, the expression levels of GAPDH and […] were confirmed using real-time PCR. The primers used for the real-time PCR were SEQ ID NOs: 9 and 10. Alternatively, the polynucleotide sets of SEQ ID NOs: 11 and 12 were used.

Row | Substance | cell viability compared to the negative control (scrambled peptide) (B16-F10 cells) | cytotoxicity (MTT assay) (B16-F10 cells) | viability at 0.5 h, 100 µg/mL [1] [%] | skin irritation [2] | MITF (real-time PCR value) (MITF gene)
1 | RRWRRWNRFNRRRCRRRLQQTQAQVDEVVDIM [C2-P4] | similar | no cytotoxicity | ~85 | no irritation | 
2 | α-MSH |  |  |  |  | 30.05 and 29.98 and 30.17
